Measurements from ChEMBL document CHEMBL5465560, “Selectivity Literature for EUbOPEN Chemogenomic Library” (2024).

How the values were obtained:
[1] = target: T1, Serine/threonine-protein kinase RIO1 (Homo sapiens) (UniProt Q9BRS2); assay: Selectivity interaction (KinomeScan (DiscoverX)) EUB0000666a RIOK1; settings: at 10 µM
T1 sequence (whole entry): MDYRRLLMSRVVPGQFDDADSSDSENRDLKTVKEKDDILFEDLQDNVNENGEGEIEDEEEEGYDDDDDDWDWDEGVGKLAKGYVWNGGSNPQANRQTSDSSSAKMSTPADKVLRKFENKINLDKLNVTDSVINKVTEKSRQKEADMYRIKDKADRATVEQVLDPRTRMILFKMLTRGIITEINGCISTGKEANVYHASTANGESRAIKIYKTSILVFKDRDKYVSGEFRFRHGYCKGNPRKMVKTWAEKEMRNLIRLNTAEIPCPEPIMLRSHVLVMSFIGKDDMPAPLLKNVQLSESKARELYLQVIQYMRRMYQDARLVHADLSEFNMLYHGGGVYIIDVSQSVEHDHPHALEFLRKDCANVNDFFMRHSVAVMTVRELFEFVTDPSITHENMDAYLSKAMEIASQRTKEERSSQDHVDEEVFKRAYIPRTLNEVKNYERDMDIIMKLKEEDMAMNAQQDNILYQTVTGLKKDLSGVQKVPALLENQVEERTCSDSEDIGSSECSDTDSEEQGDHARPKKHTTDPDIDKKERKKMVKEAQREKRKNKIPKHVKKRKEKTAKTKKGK

[2] = target: T2, Serine/threonine-protein kinase BRSK2 (Homo sapiens) (UniProt Q8IWQ3); assay: Selectivity interaction (KinomeScan (DiscoverX)) EUB0001049a BRSK2; settings: at 1 µM
T2 sequence (whole entry): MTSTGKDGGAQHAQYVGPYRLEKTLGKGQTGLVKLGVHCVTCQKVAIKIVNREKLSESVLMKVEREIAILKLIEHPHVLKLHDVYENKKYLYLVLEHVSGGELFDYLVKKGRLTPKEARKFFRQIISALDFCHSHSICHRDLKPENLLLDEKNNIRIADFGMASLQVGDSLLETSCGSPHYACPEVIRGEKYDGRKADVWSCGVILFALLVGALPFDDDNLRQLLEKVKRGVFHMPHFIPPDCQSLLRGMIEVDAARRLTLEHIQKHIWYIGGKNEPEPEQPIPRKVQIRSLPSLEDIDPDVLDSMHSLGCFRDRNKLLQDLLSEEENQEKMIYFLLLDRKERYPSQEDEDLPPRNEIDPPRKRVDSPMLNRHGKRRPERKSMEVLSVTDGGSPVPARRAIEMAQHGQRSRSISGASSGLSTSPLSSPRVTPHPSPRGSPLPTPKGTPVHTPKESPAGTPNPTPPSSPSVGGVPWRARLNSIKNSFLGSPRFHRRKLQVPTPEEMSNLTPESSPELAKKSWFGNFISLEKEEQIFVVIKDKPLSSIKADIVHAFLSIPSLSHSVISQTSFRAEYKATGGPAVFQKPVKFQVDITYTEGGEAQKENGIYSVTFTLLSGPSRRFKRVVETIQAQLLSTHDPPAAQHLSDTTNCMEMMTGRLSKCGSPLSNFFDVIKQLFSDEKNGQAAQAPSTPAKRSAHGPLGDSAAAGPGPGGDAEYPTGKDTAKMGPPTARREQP

[3] = target: T3, Uncharacterized serine/threonine-protein kinase SBK3 (Homo sapiens) (UniProt P0C264); assay: Selectivity interaction (KinomeScan (DiscoverX)) EUB0000655a SBK3; settings: at 10 µM
T3 sequence (whole entry): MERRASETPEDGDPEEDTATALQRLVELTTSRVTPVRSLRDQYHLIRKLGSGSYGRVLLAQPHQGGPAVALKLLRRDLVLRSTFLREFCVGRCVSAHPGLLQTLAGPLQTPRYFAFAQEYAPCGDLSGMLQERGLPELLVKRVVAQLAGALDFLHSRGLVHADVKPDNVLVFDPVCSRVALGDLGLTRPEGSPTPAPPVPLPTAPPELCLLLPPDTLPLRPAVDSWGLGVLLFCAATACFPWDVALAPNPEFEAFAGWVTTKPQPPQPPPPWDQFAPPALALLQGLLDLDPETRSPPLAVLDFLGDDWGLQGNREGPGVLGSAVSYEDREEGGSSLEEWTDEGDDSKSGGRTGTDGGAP

[4] = target: Phosphatidylinositol 4-phosphate 5-kinase type-1 gamma (Homo sapiens) (UniProt O60331); settings: at 10 µM
[5] = target: LIM domain kinase 1 (Homo sapiens) (UniProt P53667); assay: Selectivity interaction (KinomeScan (DiscoverX)) EUB0000618a LIMK1; settings: at 10 µM
[6] = target: T4, Serine/threonine-protein kinase LATS1 (Homo sapiens) (UniProt O95835); assay: Selectivity interaction (ActivX KiNativ screen (ex vivo kinase selectivity in human PBMCs)) EUB0001619a LATS1; assay type: cell-based; settings: PBMC, at 1 µM
T4 sequence (whole entry): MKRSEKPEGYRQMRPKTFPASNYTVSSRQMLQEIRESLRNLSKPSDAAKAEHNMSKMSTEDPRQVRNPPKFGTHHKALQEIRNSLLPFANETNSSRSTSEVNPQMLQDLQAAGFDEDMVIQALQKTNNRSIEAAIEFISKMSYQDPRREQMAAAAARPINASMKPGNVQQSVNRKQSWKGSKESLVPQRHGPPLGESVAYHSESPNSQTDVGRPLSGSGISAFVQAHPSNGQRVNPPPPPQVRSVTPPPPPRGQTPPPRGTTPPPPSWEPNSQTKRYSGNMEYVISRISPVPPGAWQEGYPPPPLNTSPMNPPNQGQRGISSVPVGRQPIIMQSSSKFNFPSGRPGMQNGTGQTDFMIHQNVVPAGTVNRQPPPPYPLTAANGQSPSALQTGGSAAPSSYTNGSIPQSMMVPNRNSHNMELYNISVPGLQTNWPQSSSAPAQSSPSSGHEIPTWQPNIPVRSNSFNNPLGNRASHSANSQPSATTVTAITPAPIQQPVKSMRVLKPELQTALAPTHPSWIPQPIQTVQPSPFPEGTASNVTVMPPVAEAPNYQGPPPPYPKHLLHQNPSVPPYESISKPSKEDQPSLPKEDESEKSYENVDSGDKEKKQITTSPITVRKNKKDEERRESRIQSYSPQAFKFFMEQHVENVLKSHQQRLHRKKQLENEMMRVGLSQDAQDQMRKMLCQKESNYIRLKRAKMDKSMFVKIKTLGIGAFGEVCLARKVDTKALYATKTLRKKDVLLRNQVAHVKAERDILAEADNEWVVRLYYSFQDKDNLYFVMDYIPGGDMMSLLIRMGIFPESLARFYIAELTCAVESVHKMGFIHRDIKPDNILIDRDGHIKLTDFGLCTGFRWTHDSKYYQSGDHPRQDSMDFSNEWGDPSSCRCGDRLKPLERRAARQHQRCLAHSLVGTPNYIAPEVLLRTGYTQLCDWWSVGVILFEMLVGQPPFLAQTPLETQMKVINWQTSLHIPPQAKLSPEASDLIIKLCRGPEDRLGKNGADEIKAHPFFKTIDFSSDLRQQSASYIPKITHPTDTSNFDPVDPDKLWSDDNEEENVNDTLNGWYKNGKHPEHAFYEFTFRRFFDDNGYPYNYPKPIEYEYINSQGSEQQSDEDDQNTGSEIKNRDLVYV

Phosphatidylinositol 4-phosphate 5-kinase type-1 gamma (Homo sapiens), sequence (O60331 whole entry, the tested form may be a part): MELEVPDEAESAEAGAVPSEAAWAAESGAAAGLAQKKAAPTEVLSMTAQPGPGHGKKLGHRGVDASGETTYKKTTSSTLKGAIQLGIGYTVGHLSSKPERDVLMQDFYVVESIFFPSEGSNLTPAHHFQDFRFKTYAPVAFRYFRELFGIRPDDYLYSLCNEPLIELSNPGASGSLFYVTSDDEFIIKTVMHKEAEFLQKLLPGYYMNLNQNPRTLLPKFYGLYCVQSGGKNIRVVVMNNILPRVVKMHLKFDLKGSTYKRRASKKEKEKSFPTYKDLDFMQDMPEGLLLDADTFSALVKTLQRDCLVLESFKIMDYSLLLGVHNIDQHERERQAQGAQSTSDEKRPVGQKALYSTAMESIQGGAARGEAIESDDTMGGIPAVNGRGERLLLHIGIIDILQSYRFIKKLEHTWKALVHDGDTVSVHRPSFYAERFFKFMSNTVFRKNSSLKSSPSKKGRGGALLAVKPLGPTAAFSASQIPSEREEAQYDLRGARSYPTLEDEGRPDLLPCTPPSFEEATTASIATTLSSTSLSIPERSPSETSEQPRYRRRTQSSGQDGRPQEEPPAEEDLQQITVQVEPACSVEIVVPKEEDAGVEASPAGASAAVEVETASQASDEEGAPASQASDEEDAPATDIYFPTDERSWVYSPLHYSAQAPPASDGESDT
LIM domain kinase 1 (Homo sapiens), sequence (P53667 whole entry, looked up, the tested form may be a part): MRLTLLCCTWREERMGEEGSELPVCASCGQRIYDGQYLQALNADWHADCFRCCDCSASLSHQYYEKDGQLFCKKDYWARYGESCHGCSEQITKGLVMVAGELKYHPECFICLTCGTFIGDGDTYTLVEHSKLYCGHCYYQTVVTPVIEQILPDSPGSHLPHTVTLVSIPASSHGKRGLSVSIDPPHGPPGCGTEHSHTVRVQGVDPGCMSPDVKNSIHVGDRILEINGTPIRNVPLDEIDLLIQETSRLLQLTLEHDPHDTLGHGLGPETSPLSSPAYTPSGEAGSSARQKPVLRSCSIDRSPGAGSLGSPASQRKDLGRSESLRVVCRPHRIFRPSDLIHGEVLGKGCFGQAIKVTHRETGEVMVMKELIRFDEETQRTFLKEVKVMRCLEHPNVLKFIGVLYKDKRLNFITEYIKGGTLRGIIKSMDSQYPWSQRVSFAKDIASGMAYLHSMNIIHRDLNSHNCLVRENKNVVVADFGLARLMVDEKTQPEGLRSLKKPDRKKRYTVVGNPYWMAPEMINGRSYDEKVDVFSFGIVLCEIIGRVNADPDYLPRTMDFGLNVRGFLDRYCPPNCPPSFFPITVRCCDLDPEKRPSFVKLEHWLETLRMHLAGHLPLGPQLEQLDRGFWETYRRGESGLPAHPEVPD

O=C(NOC[C@H](O)CO)c1ccc(F)c(F)c1Nc1ccc(I)cc1F
% of control [1]: 95%

COc1cc(Nc2nc(C)cc(-c3cnn4nc(OC)ccc34)n2)cc(C(F)(F)F)c1
% of control [2]: 94%

CN(C)CCOc1ccc(-c2nc(-c3ccncc3)c(-c3ccc4c(c3)CC/C4=N\O)[nH]2)cc1
% of control [3]: 100%

Cc1cc([C@@H](C)Nc2ccccc2C(=O)O)c2nc(N3CCOCC3)cc(=O)n2c1 [AZD-6482]
% of control [4]: 63%

O[C@H]1CC[C@H](Nc2ncc3nc(Nc4c(F)cc(F)cc4F)n([C@H]4CCOC4)c3n2)CC1
% of control [5]: 35%

N#Cc1cccc(-c2c[nH]c3ncnc(N4CCOCC4)c23)c1
% of inhibition [6]: 5%
